Columns and labels:
Assay type in all cases: cell-based
cancer cell lines [1] = experiment: Garnett et al. drug screen re-analysed by TN/Agro/iBCR score; details: Garnett et al. study; for sensitivity (−log10[IC50]) of high TN score vs low TN score cell lines: dichotomy across median TN score; for sensitivity of high iBCR score vs low iBCR score cell lines: dichotomy across median iBCR score
Description: FIG. 24: Drug sensitivity of cancer cell lines according to the TN score. The large published study by Garnett et al. was investigated where the TN score was calculated for each cell line in the study as described in Methods. The cell lines were classified as high or low TN score according to the median TN score to compare the sensitivity of low TN score cell lines (white boxes) and high TN score cell lines (red boxes). Graphs were prepared using GraphPad® Prism showing sensitivity as −log 10[IC50] in boxes (with median marked by a line) and whiskers (marking the 1st and 3rd quartiles and outliers as dots according to Tukey method for plotting the whiskers and outliers). Unpaired two-tailed t test was used for statistical analysis.
FIG. 30: Drug sensitivity of cancer cell lines according to the iBCR score. The large published study by Garnett et al. was investigated where the iBCR score was calculated for each cell line from the Agro and TN scores. The cell lines were classified as high or low iBCR score according to the median iBCR score to compare the sensitivity of low iBCR score cell lines (white boxes) and […] (red boxes). Results according to low and high Agro score were also included.
(§1) Two large studies which treated large panels of cancer cell lines with large panels of anticancer drugs were investigated to determine whether cell lines with high Agro, TN or iBCR scores show different sensitivity to particular anticancer drugs in comparison to cancer cell lines with low Agro, TN or iBCR scores. Briefly, the datasets of gene expression profiling from Genentech (mRNA Cancer Cell Line Profiles GSE10843), Pfizer (Pfizer Molecular Profile Data for Cell Line GSE34211) and Broad Institute/Novartis (Cancer Cell Line Encyclopedia [CCLE] GSE3613) were obtained from GEO and imported into ArrayTools as described earlier. The Agro, TN and iBCR scores for all the cell lines profiled were calculated and cell lines were assigned as high or low for each of the scores based on dichotomy across the median in each dataset. For cell lines which were profiled in more than one dataset, the average scores were used. […] Statistical significance was determined from unpaired two-tailed t-test using GraphPad® Prism.
(§2) In the second approach, published studies which surveyed panels of molecular drugs against, cancer cell lines were analyzed. The Cancer Cell Line Encyclopedia (CCLE) study investigated the pharmacological profiles for 24 anticancer drugs across 479 cancer cell lines which were also profiled with gene expression arrays. We calculated the TN score for each cell line in this study and compared the sensitivity of these cell lines to the anticancer drugs according to the TN score. […] In a similar method, we also analyzed a second large study. Garnett et al., which tested 130 drugs against more than 600 cancer cell lines.

breast cancer cell lines = experiment: Screen of 24 anti-cancer drugs on 10 breast cancer cell lines (MTS/MTA, six days) re-analysed by iBCR score; details: 5 high vs 5 low iBCR score cell lines
Description: FIG. 47: The sensitivity of breast cancer cell lines treated with 24 drugs according to the iBCR score. Breast cancer cell lines (10 cell lines) were cultured in the absence or presence of escalating doses of 24 small molecular anti-cancer drugs. This published study was re-analyzed to compare the sensitivity (calculated as the −log IC50) between high iBCR score cell lines (5 cell lines: BT-549, MDA-MB-231, MDA-MB-436, MDA-MB-468 and BT-20) to low iBCR score cell lines (5 cell lines: Hs.578T, BT-474, MCF-7, T-47D, and ZR-75-1). The iBCR scores were calculated from the Agro and TN scores using the published gene expression dataset for 51 breast cancer cell lines (Neve et al., Cancer Cell, 2006). […] Statistical comparison was performed in GraphPad® Prism using two tailed unpaired t-test.
Breast cancer cell lines (10 cell lines); BT-549, MDA-MB-231, MDA-MB-436, MDA-MB-468, BT-20, Hs.578T, BT-474, MCF-7, T-47D, and ZR-75-1, were cultured in the absence or presence of escalating doses of 24 anti-cancer drugs. The survival of cells was determined six days in comparison to untreated cells using the MTS/MTA assay. The response of the cell lines to the drugs was analyzed in GraphPad® Prism using a dose response curve to calculate the log10 of IC50 (IC50 is the dose required to kill 50% of the cells). Sensitivity was presented as the −log10[IC50]. This drug screen which we published previously (Al-Ejeh et al., Oncotarget, 2014) was re-analyzed according to the iBCR score. The gene expression datasets of 51 breast cancer cell lines by Neve et al. (Cancer Cell, 2006), was analyzed to calculate the Agro and TN scores for each cell line to calculate the iBCR score. Each cell line was assigned as low of high iBCR score by dichotomy across the median of all the cell lines in the Neve et al. dataset. Based on the low or high iBCR score classification, the sensitivity of the 10 cell lines used in our screen was compared between high iBCR score cell lines (5 cell lines) to low iBCR score cell lines (5 cell lines). […] PLC[…] (U73122), INK (SP600125), PAK1 MEK (AS703026 and AZD6244), ERK5 (XMD 8-92 and BIX02188). HSP90 (17-AAa PF0429113 and AUY922), IGF1R (GSK1904529A) and EGFR (Afatinib). The results from our screen are in agreement with the higher sensitivity of high iBCR score cancer cell lines to HSP90, IGF1R and MEK inhibitors we identified from the two previously published large cell line studies.

cancer cell lines [2] = experiment: Cancer Cell Line Encyclopedia (CCLE) drug sensitivity re-analysed by TN/Agro/iBCR score; details: CCLE study; for sensitivity (IC50) of high TN score vs low TN score cell lines: dichotomy across median TN score; for sensitivity (IC50) of high iBCR score vs low iBCR score cell lines: dichotomy across median iBCR score
Description: (§3) FIG. 35: Sensitivity of cancer cell lines to anticancer drugs according to the TN score in the Cancer Cell Line Encyclopedia (CCLE) study. The gene expression data of the cancer cell lines in the study were analyzed to calculate the TN score for each cell line and were assigned to low or high TN score by dichotomy across the median. The IC50 for each of the 24 drugs used in the CCLE study was compared between high and low TN score cell lines and the data shown are those with statistical differences based on unpaired two-tailed t-test performed using GraphPad® Prism.
as §3, with “FIG. 42: Sensitivity of” for “FIG. 35: Sensitivity of”, “to the iBCR score in” for “to the TN score in”, “or high iBCR score by” for “or high TN score by”, “and low iBCR score cell” for “and low TN score cell”, “GraphPad® Prism. As this analysis was also done for the TN score (FIG. 35), results from analysis of the Agro score are also shown in the top row.” for “GraphPad® Prism.”
as §1, §2

sensitivity (−log10[IC50]) of high TN score vs low TN score cell lines (cancer cell lines [1]) | Structure (SMILES) | sensitivity of high iBCR score vs low iBCR score cell lines (cancer cell lines [1]) | further results
less sensitive | CC1(C)CCC(c2ccc(Cl)cc2)=C(CN2CCN(c3ccc(C(=O)NS(=O)(=O)c4ccc(N[C@H](CCN5CCOCC5)CSc5ccccc5)c(S(=O)(=O)C(F)(F)F)c4)cc3)CC2)C1 [ABT-263] | less sensitive | 
less sensitive | CC1=C(/C=C/C(C)=C/C=C/C(C)=C/C(=O)O)C(C)(C)CCC1 [ATRA, all-trans retinoic acid] | less sensitive | 
more sensitive | Cn1c(=O)n(-c2ccc(C(C)(C)C#N)cc2)c2c3cc(-c4cnc5ccccc5c4)ccc3ncc21 [BEZ235] | more sensitive | 
less sensitive | Cc1ccc(-n2nc(C(C)(C)C)cc2NC(=O)Nc2ccc(OCCN3CCOCC3)c3ccccc23)cc1 [BIRB 0796] | less sensitive | 
less sensitive | C[C@]1(O)C[C@@H](c2nc(-c3ccc4ccc(-c5ccccc5)nc4c3)c3c(N)nccn32)C1 [OSI-906] |  | 
less sensitive | CN(Cc1cnc2nc(N)nc(N)c2n1)c1ccc(C(=O)N[C@@H](CCC(=O)O)C(=O)O)cc1 [methotrexate] | less sensitive | 

Second part, the molecule before the results:

Structure (SMILES) | sensitivity (−log10[IC50]) of high TN score vs low TN score cell lines (cancer cell lines [1]) | sensitivity of high iBCR score vs low iBCR score cell lines (cancer cell lines [1]) | further results
C[C@]1(c2nc3c(C(N)=O)cccc3[nH]2)CCCN1 [ABT-888] | less sensitive | less sensitive | 
O=C(NC[C@H](O)CO)c1ccncc1Nc1ccc(I)cc1F [AS703026] |  |  | sensitivity (−log10[IC50]) of high iBCR score vs low iBCR score breast cancer cell lines (breast cancer cell lines): significantly more sensitive
CCNC(=O)c1noc(-c2cc(C(C)C)c(O)cc2O)c1-c1ccc(CN2CCOCC2)cc1 [AUY922] |  |  | sensitivity (−log10[IC50]) of high iBCR score vs low iBCR score breast cancer cell lines (breast cancer cell lines): significantly more sensitive
Cn1cnc2c(F)c(Nc3ccc(Br)cc3Cl)c(C(=O)NOCCO)cc21 [AZD6244] |  |  | sensitivity (−log10[IC50]) of high iBCR score vs low iBCR score breast cancer cell lines (breast cancer cell lines): significantly more sensitive
O=C(c1cc(Cc2n[nH]c(=O)c3ccccc23)ccc1F)N1CCN(C(=O)C2CC2)CC1 [AZD-2281] |  | less sensitive | 
CC[C@@H]1C(=O)N(C)c2cnc(Nc3ccc(C(=O)NC4CCN(C)CC4)cc3OC)nc2N1C1CCCC1 [B1-2536] |  | more sensitive | sensitivity of high Agro score vs low Agro score cell lines (cancer cell lines [1]): more sensitive
COc1ccc(-c2cc3nccn3c(Nc3ncccc3C(N)=O)n2)cc1OC [BAY613606] |  | less sensitive | 
Cc1cc(N2CCOCC2)cc2[nH]c(-c3c(NC[C@@H](O)c4cccc(Cl)c4)cc[nH]c3=O)nc12 [BMS-536924] | more sensitive | more sensitive | 
CN(NC(=O)CC(=O)NN(C)C(=S)c1ccccc1)C(=S)c1ccccc1 [Elesclomol] | sensitive |  | 
C#Cc1cccc(Nc2ncnc3cc(OCCOC)c(OCCOC)cc23)c1 [Erlotinib] |  |  | sensitivity (IC50) of high TN score vs low TN score cell lines (cancer cell lines [2]): more sensitive
CCc1cc(Nc2nccc(-c3c(-c4ccc(OC)c(C(=O)Nc5c(F)cccc5F)c4)nc4ccccn34)n2)c(OC)cc1N1CCC(N2CCN(S(C)(=O)=O)CC2)CC1 [GSK1904529A] |  |  | sensitivity (−log10[IC50]) of high iBCR score vs low iBCR score breast cancer cell lines (breast cancer cell lines): significantly more sensitive
CC(C)(C)Cn1c(N)nc2ccc(-c3[nH]c(C(C)(C)C)nc3-c3ccc(F)cc3)nc21 [LY2228820] |  |  | sensitivity (−log10[IC50]) of high iBCR score vs low iBCR score breast cancer cell lines (breast cancer cell lines): significantly more sensitive
CS(=O)(=O)CCNCc1ccc(-c2ccc3ncnc(Nc4ccc(OCc5cccc(F)c5)c(Cl)c4)c3c2)o1 [Lapatinib] |  |  | sensitivity (IC50) of high TN score vs low TN score cell lines (cancer cell lines [2]): more sensitive
Cc1cn(-c2cc(NC(=O)c3ccc(C)c(Nc4nccc(-c5cccnc5)n4)c3)cc(C(F)(F)F)c2)cn1 [Nilotinib] |  | less sensitive | sensitivity (IC50) of high TN score vs low TN score cell lines (cancer cell lines [2]): less sensitive; sensitivity (IC50) of high iBCR score vs low iBCR score cell lines (cancer cell lines [2]): less sensitive
CC1(C)CC(=O)c2c(C(F)(F)F)nn(-c3ccc(C(N)=O)c(N[C@H]4CC[C@H](OC(=O)CN)CC4)c3)c2C1 [PF0429113] |  |  | sensitivity (−log10[IC50]) of high iBCR score vs low iBCR score breast cancer cell lines (breast cancer cell lines): significantly more sensitive
COc1cc(F)c(F)c(Nc2ccc(I)cc2F)c1NS(=O)(=O)C1(C[C@H](O)CO)CC1 [RDEA-119] | more sensitive |  | 
Cn1cc(C2=C(c3ccc(Cl)cc3Cl)C(=O)NC2=O)c2ccccc21 [SB216763] |  |  | sensitivity of high Agro score vs low Agro score cell lines (cancer cell lines [1]): less sensitive
COc1cc(N2CCC(N3CCN(C)CC3)CC2)ccc1Nc1ncc(Cl)c(Nc2ccccc2S(=O)(=O)C(C)C)n1 [TAE684] |  |  | sensitivity (IC50) of high TN score vs low TN score cell lines (cancer cell lines [2]): less sensitive; sensitivity (IC50) of high iBCR score vs low iBCR score cell lines (cancer cell lines [2]): less sensitive
CN1CCN(c2ccc3nc(-c4c(N)c5c(F)cccc5[nH]c4=O)[nH]c3c2)CC1 [TKI258] |  |  | sensitivity (IC50) of high iBCR score vs low iBCR score cell lines (cancer cell lines [2]): less sensitive
COc1ccc2c(c1)CC[C@@H]1[C@@H]2CC[C@]2(C)[C@@H](NCCCCCCN3C(=O)C=CC3=O)CC[C@@H]12 [U73122] |  |  | sensitivity (−log10[IC50]) of high iBCR score vs low iBCR score breast cancer cell lines (breast cancer cell lines): significantly more sensitive
O=C(CCCCCCC(=O)Nc1ccccc1)NO [Vorinostat] |  | less sensitive | 
CCOc1cc(N2CCC(O)CC2)ccc1Nc1ncc2c(n1)N(C)c1ccccc1C(=O)N2C [XMD 8-92] |  |  | sensitivity (−log10[IC50]) of high iBCR score vs low iBCR score breast cancer cell lines (breast cancer cell lines): significantly more sensitive
CN(C)C(=N)N=C(N)N [metformin] | less sensitive | less sensitive | 

Source: patent publication US20170107577A1, “Determining Cancer Aggressiveness, Prognosis and Responsiveness to Treatment” (THE COUNCIL OF THE QUEENSLAND INSTITUTE OF MEDICAL RESEARCH, priority 2014, published 2017)
